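96-well plates; 48 h exposure; 5 concentrations. Endpoints by linear interpolation between flanking doses. Not reached: highest tested concentration assigned. At the GI50, growth is halved.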 Activity calls are given as the source filed them. No stated cut-off is given here; in the data, active = GI50 up to about 1.1 µM and inactive = higher.
Columns and labels:
Test in all cases: DTP human tumour cell line panel, 48 h
SF-268 = test system: SF-268
NCI-H23 = test system: NCI-H23
UO-31 = test system: UO-31
SNB-19 = test system: SNB-19
A549 = test system: A549
A498 = test system: A498
OVCAR-5 = test system: OVCAR-5
UACC-257 = test system: UACC-257
SW-620 = test system: SW-620
EKVX = test system: EKVX
NCI-H226 = test system: NCI-H226
OVCAR-3 = test system: OVCAR-3
NCI/ADR-RES = test system: NCI/ADR-RES
SF-539 = test system: SF-539
U-251 = test system: U-251
HCT-15 = test system: HCT-15
Malme-3M = test system: Malme-3M
M14 = test system: M14
TK-10 = test system: TK-10

SMILES	GI50 (SF-268)	GI50 (NCI-H23)	GI50 (UO-31)	GI50 (SNB-19)	GI50 (A549)	GI50 (A498)	GI50 (OVCAR-5)	GI50 (UACC-257)	GI50 (SW-620)	GI50 (EKVX)	GI50 (NCI-H226)	GI50 (OVCAR-3)	GI50 (NCI/ADR-RES)	GI50 (SF-539)	GI50 (U-251)	GI50 (HCT-15)	GI50 (Malme-3M)	GI50 (M14)	GI50 (TK-10)
O=C1c2ccccc2C(O)(C(=O)O)C1(O)CC=C(Cl)Cl (configuration not stated)	> 125 µM (inactive)	> 125 µM (inactive)	> 112 µM (inactive)	> 78.9 µM (inactive)	> 125 µM (inactive)	> 125 µM (inactive)	> 125 µM (inactive)	> 125 µM (inactive)	> 125 µM (inactive)	> 125 µM (inactive)	> 125 µM (inactive)	> 125 µM (inactive)	> 125 µM (inactive)	> 125 µM (inactive)	> 28.2 µM (inactive)	> 125 µM	> 125 µM (inactive)	–	–
O=C(O)C(Cc1cccs1)NC(=O)C(F)(F)F (configuration not stated)	> 100 µM (inactive)	> 100 µM (inactive)	> 100 µM (inactive)	> 100 µM (inactive)	> 100 µM (inactive)	> 100 µM (inactive)	> 100 µM (inactive)	> 100 µM (inactive)	> 100 µM (inactive)	> 100 µM (inactive)	> 100 µM (inactive)	> 100 µM (inactive)	> 100 µM (inactive)	> 100 µM (inactive)	> 100 µM (inactive)	> 100 µM	> 100 µM (inactive)	–	–
CC1CC(C)(O)C2C3(C)CCCC2(COC3=O)C12CCC1(CCOC1=O)O2 (configuration not stated)	> 250 µM (inactive)	> 250 µM (inactive)	> 238 µM (inactive)	> 250 µM (inactive)	> 250 µM (inactive)	> 163 µM (inactive)	> 250 µM (inactive)	> 250 µM (inactive)	> 250 µM (inactive)	> 250 µM (inactive)	> 250 µM (inactive)	> 250 µM (inactive)	> 250 µM (inactive)	> 250 µM (inactive)	> 250 µM (inactive)	> 250 µM	> 250 µM (inactive)	–	–
Cc1c2ccncc2c(C)c2c1[nH]c1ccccc12 [ELLIPTECINE]	0.698 µM (active)	0.656 µM (active)	1.95 µM (inactive)	0.826 µM (active)	0.504 µM (active)	0.794 µM (active)	1.46 µM (inactive)	1.42 µM (inactive)	0.36 µM (active)	0.933 µM (active)	1.42 µM (inactive)	0.322 µM (active)	0.659 µM (active)	0.867 µM (active)	0.771 µM (active)	0.402 µM	2.01 µM (inactive)	–	–
O=C(NCCCl)O/N=C/c1cccnc1	> 100 µM (inactive)	> 100 µM (inactive)	> 100 µM (inactive)	> 100 µM (inactive)	> 100 µM (inactive)	> 100 µM (inactive)	> 100 µM (inactive)	> 100 µM (inactive)	> 100 µM (inactive)	> 100 µM (inactive)	> 100 µM (inactive)	> 100 µM (inactive)	> 100 µM (inactive)	> 100 µM (inactive)	> 100 µM (inactive)	> 100 µM	–	–	–
CC1(C)N=C(N)N=C(N)N1c1ccc(CCc2ccccc2)cc1	0.618 µM (active)	1.43 µM (inactive)	> 34.1 µM (inactive)	1.14 µM (inactive)	0.46 µM (active)	–	1.92 µM (inactive)	2.96 µM (inactive)	0.301 µM (active)	0.622 µM (active)	14.2 µM (inactive)	1.79 µM (inactive)	> 100 µM (inactive)	2.78 µM (inactive)	0.435 µM (active)	37.9 µM	2.2 µM (inactive)	–	–
CCn1c(=O)c(C(=O)O)c(Cl)c2cc3c(cc21)OCO3	> 100 µM (inactive)	> 100 µM (inactive)	> 100 µM (inactive)	> 100 µM (inactive)	> 100 µM (inactive)	> 100 µM (inactive)	> 100 µM (inactive)	> 100 µM (inactive)	> 100 µM (inactive)	> 100 µM (inactive)	> 100 µM (inactive)	> 100 µM (inactive)	> 100 µM (inactive)	> 100 µM (inactive)	> 100 µM (inactive)	> 100 µM	> 100 µM (inactive)	–	–
C/C=C(\C)C(=O)OC1C2C(C)=CC(=O)C(O)C2(C)C2C3(O)OCC24C1OC(=O)C(OC(C)=O)C4C(C)C3O (configuration not stated)	0.0444 µM (active)	0.043 µM (active)	0.195 µM (active)	–	0.0873 µM (active)	0.0611 µM (active)	0.111 µM (active)	0.0375 µM (active)	0.0594 µM (active)	0.046 µM (active)	0.0375 µM (active)	0.0375 µM (active)	1.05 µM (active)	–	0.0375 µM (active)	0.0741 µM	–	–	–
O=C(C1C(c2ccccc2)N1C(c1ccccc1)c1ccccc1)C1C(c2ccccc2)N1C(c1ccccc1)c1ccccc1 (configuration not stated)	24.7 µM (inactive)	–	21 µM (inactive)	97.5 µM (inactive)	39 µM (inactive)	–	32.1 µM (inactive)	18.5 µM (inactive)	5.14 µM (inactive)	48.2 µM (inactive)	–	–	27.4 µM (inactive)	20 µM (inactive)	25.1 µM (inactive)	> 10 µM	–	37.2 µM (inactive)	24.8 µM (inactive)
CC(C)CCCC(C)[C@H]1CCC(C2C[C@@H](O)[C@@H]3CC(O)[C@@H](O)C[C@]3(CO)C2=O)[C@]1(C)CCO (some centres not stated)	25 µM (inactive)	36.1 µM (inactive)	23 µM (inactive)	28.4 µM (inactive)	34 µM (inactive)	25.6 µM (inactive)	23.2 µM (inactive)	20 µM (inactive)	23.4 µM (inactive)	> 57.8 µM (inactive)	30.7 µM (inactive)	21.4 µM (inactive)	37.6 µM (inactive)	20.9 µM (inactive)	19.4 µM (inactive)	28.8 µM	23.1 µM (inactive)	–	–
OCC1OC(n2cnc3c2NC=NC[C@H]3O)C(O)C1O (some centres not stated)	> 384 µM (inactive)	445 µM (inactive)	282 µM (inactive)	> 450 µM (inactive)	396 µM (inactive)	208 µM (inactive)	> 450 µM (inactive)	> 450 µM (inactive)	317 µM (inactive)	> 450 µM (inactive)	173 µM (inactive)	> 450 µM (inactive)	> 436 µM (inactive)	> 450 µM (inactive)	> 450 µM (inactive)	205 µM	> 355 µM (inactive)	–	–
CCOC(=O)C1S/C(=N\c2ccc(Cl)cc2Cl)N=C1C (configuration not stated)	> 100 µM (inactive)	39.4 µM (inactive)	> 100 µM (inactive)	47.5 µM (inactive)	76.4 µM (inactive)	39.3 µM (inactive)	> 100 µM (inactive)	88.3 µM (inactive)	> 100 µM (inactive)	> 100 µM (inactive)	> 100 µM (inactive)	96.6 µM (inactive)	–	53 µM (inactive)	58.1 µM (inactive)	> 100 µM	76.7 µM (inactive)	81.8 µM (inactive)	> 100 µM (inactive)

— ChEMBL document CHEMBL1201862, “PubChem BioAssay data set” (2004)
